Patent publication US7737183B2, “β-amyloid and neurofibrillary tangle imaging agents” (The Regents of the University of California, priority 2006, dated 2010)
Values joined by “and” are separate entries in the source; they are usually repeats but may differ in a detail not shown here. Identical values can stand only once. Each block holds one molecule with its values, some of them ahead of it.

Legend:
β-amyloid plaques [1] = target: T1, β-amyloid plaques (Homo sapiens, UniProt P05067); test: In vitro autoradiographic binding to Tg2576 mouse hippocampal brain slices; parameters: representative of the amount of Aβ40 and Aβ42 plaque aggregates; from tissue; host or cells: hippocampal brain slices of 24-month old Tg2576 transgenic mice; species or system Tg2576 transgenic mice; conditions: for ratio of binding in plaque to non-plaque areas within the same slice: 10 μm hippocampal slice of 24-month old Tg2576 mouse
T1 sequence (P05067 672-713 limits assumed): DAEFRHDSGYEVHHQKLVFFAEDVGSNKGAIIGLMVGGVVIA
Method: (§1) In vitro studies of ^18F-FBM were carried out on coronal and horizontal mice brain slices (both wild-type and Tg 2576), which were obtained on a Leica 1850 cryotome. Mice brain-region slices (hippocampus and frontal cortex of 24-month old wild-type and Tg 2576; 10 μm thick) were preincubated in buffer (0.9% saline) for 10 minutes. Subsequently, the mice brain slices were incubated with ^18F-FBM (6.8 μCi/cc) in 0.9% saline, pH 7.4 at 37° C. for 1 hr. For nonspecific binding, brain slices were treated with 10 μM FDDNP. Slices were washed with cold millipore water, 70% alcohol, 90%, alcohol, 70% alcohol, and water for 2, 1, 1, 1, and 1 min, respectively. The slices were air dried then exposed overnight onto a phosphor screen and read by the Phosphor Autoradiographic Imaging System/Cyclone Storage Phosphor System (Packard Instruments Co). Regions of interest were drawn on various regions of the slices and the extent of binding of ^18F-FBM was computed as DLU/mm^2 using the OptiQuant acquisition and analysis program (Packard Instruments Co).
(§2) Similar experiments were carried out in adjacent slices using ^18F-FDDNP (7.8 μCi/cc) for comparison. For evaluating the amount of plaque present in the brain slices, adjacent brain slices were also stained for the peptide fragment Aβ17-24 which is representative of the amount of Aβ40 and Aβ42 plaque aggregates using reported 4G8 immunostaining methods of UCI-Institute for Brain Aging and Dementia (Head E, Moffat K, Das P, Sarsoza E, Poon W W, Landsberg G, Cotman C W, Muphy M P. (2005). Beta-amyloid deposition and tau phosphorylation in clinically characterized aged cats. Neurobiology of Aging 26(5): 749-763). Beta-amyloid deposition and tau phosphorylation in clinically characterized aged cats. Neurobiology of Aging 26(5): 749-763).
Hippocampal slice of 24-month old transgenic mouse (Tg2576, transgenic mice expressing mutant APP) stained for Aβ17-24 using 4G8 immunostaining confirmed presence of β-amyloid plaques found in Alzheimer's disease (FIGS. 1A and 2A depicting 10 μm thick horizontal hippocampal slice of 24-month old transgenic mouse (Tg2576) stained for Aβ17-24 using 4G8 immunostaining. Arrow indicates amyloid plaques.). Adjacent hippocampal slices radiolabeled with ^18F-FBM and ^18F-FDDNP indicated binding to amyloid plaques and corresponded to the 4G8 stain (FIGS. 1B and 2B depicting adjacent hippocampal slice shown in (A) but radiolabeled with high-specific activity ^18F-FBM or ^18F-FDDNP. Arrow indicates binding of ^18F-FBM or ^18F-FDDNP to the amyloid plaques and corresponds to the 4G8 stain.). The specific binding to amyloid plaques was reduced in the presence of 10 μM FDDNP (FIGS. 1C and 2C; FIG. 1C depicts adjacent hippocampal slice shown in (B) radiolabeled with high-specific activity ^18F-FBM in the presence of 10 μM FDDNP. Specific binding to regions containing plaques is reduced; and FIG. 2C depicts adjacent hippocampal slice in cold FDDNP. Specific binding to plaque regions is reduced). Alcohol was used for washing the medium to remove nonspecific binding. The ratio of binding in plaque to non-plaque areas within the same slice for ^18F-FBM was 2.1 while that for ^18F-FDDNP was 1.4; and in the presence of 10 μM FDDNP, these ratios went down to 1.6 and 1.2, respectively.

[2] = Relative lipophilicity from reverse-phase HPLC elution order; format: physicochemical; conditions: elutes first
Method: For the radiosynthesis step, high specific activity ^18F-fluoride (approximately 100 milliCurie) was produced in the MC-17 cyclotron. Fluorine-18 radioactivity count was measured in a Capintec dose calibrator, while low-level counts were measured out in a well-counter (Cobra Quantum, Packard Instruments Co). Direct radiolabeling of the tosylate precursor was done by using ^18F-fluoride in a solution of 19 mg of Kryptofix 2.2.2 and 0.75 mg potassium carbonate in acetonitrile. The mixture was heated at 85° C. for 20 minutes. After cooling, the mixture was transferred onto a neutral alumina Sep-Pak Cartridge to remove unreacted ^18F-fluoride. Chromatographic separations were preformed on semi-preparative reverse-phase C18 column (length=[…], ID=4.6 mm) using the Gilson high performance liquid chromatography (HPLC) systems. Decay-corrected radiochemical yield was approx. 20%. Retention time of ^18F-FBM was 14 mins compared to 15.7 mins for ^18F-FDDNP (for separation protocol, see e.g., Agdeppa E D et al. (2001) Binding Characteristics of Radiofluorinated 6-Dialkylamino-2-Naphthylethylidene Derivatives as Positron Emission Tomography Imaging Probes for Beta-Amyloid Plaques in Alzheimer's Disease. The Journal of Neuroscience 21, 1-5). ^18F-FBM was collected and prepared for in vitro binding studies. […]

[3] = test system: senile plaques and neurofibrillary tangles; test: In vitro autoradiographic binding to triple transgenic mouse sagittal brain slices; parameters: species or system triple transgenic mice; conditions: for selectivity of binding to the plaques: triple transgenic mice brain slices
Method: as §1, §2
Sagittal brain slices of 18 month old triple transgenic mice were then studied. These mice have been known to have an extensive amount of senile plaques and neurofibrillary tangles accumulation in several regions of the brain. These regions include the hippocampus, cortex, thalamus, brain stem and other regions. Binding of ^18F-FBM and ^18F-FDDNP to 10 micron thick slices of triple transgenic mice brains is depicted in FIG. 3 along with antibody staining for plaques. More specifically, FIG. 3A depicts antibody staining in the hippocampus and frontal cortex regions, which was also confirmed by thioflavin S staining in an adjacent slice (shown in inset in FIG. 3A). […] Regions of the hippocampus and the frontal cortex (arrows pointing) that contain the plaques are clearly evident.
The binding of ^18F-FBM in the various plaque containing regions was also quantitatively evaluated as a ratio plot shown in FIGS. 4A and 4B. Cerebellum and striatum were used as reference regions. […] The ratio between the frontal cortex regions showing plaques was between 6 and 7 while the hippocampus was between 3.5 and 4.5 as can be taken from FIG. 4A. […] On the other hand, in the case of ^18F-FDDNP, the binding ratios with respect to cerebellum were 1.5 and 2.0 as can be taken from FIG. 4B.

β-amyloid plaques [4] = target: T1, β-amyloid plaques; test: In vitro autoradiographic binding of 18F-FPCUR to transgenic mice brain slices; parameters: from tissue; host or cells: sagittal brain sections of Tg 2576 and 3×Tg transgenic mice, 1 to 24 months; species or system transgenic mice (Tg 2576 and 3×Tg)
Method: Preliminary binding to rat brain slices of ^18F-fluoropropyl curcumin was carried out at 37° C. in Tris buffer, 50 mM, pH 7.4 for one hour, and further testing of ^18F-FPCUR for binding to β-amyloid plaques was carried out transgenic mice brains. […] Brain slices were pre-incubated for 10 mins in incubation buffer, 0.1 M Tris, 0.1 M NaCl, 0.5% Tween and 0.1% BSA, pH 7.4. Incubation was carried out in 0.1 M Tris, 0.1 M NaCl, 0.5% Tween and 0.1% BSA, pH 7.4 with ^18F-FPCUR (3 μCi/cc) at 37° C. for 1 hr. […] Slices were washed with cold buffer, 2×2 min, rinsed with cold water and air dried. Autoradiograms were obtained of various slices and binding of ^18F-FPCUR was quantitated using Optiquant Image analysis program. […] For evaluating the amount of plaque present in the brain slices, adjacent brain slices were also stained using reported immunostaining methods.

Compound: CC(/C=C/c1ccc(N(C)CC[18F])cc1)=C(C#N)C#N [18F-FBM, 4′-[(2-[^18F]fluoroethyl)(methyl)amino]-4-phenyl-3-buten-2-malonitrile]
ratio of binding in plaque to non-plaque areas within the same slice (β-amyloid plaques [1]; in the presence of 10 μM FDDNP): 1.6
ratio of binding in plaque to non-plaque areas within the same slice (β-amyloid plaques [1]; no competitor): 2.1
specific binding to amyloid plaque regions compared to 18F-FDDNP (β-amyloid plaques [1]; Tg2576 hippocampal slices): higher specific binding
lipophilicity relative to 18F-FDDNP [2]: less lipophilic
selectivity of binding to the plaques [3]: selective binding

Compound: CC(=C(C#N)C#N)c1ccc2cc(N(C)CC[18F])ccc2c1 [18F-FDDNP, 2-(1-{6-[(2-[^18F]fluoroethyl)(methyl)amino]-2-naphtyl}ethylidene)malonitrile]
ratio of binding in plaque to non-plaque areas within the same slice (β-amyloid plaques [1]; in the presence of 10 μM FDDNP): 1.2
ratio of binding in plaque to non-plaque areas within the same slice (β-amyloid plaques [1]; no competitor): 1.4
binding ratios with respect to cerebellum ([3]; 18 month old triple transgenic mice, FIG. 4B): 1.5 and 2.0
selectivity of binding to the plaques [3]: less selective
binding in the cerebellum (no significant amount of plaques) ([3]; triple transgenic mice, FIG. 3D): significant amount of binding

Compound: COc1cc(/C=C/C(=O)CC(=O)/C=C/c2ccc(OCCC[18F])c(OC)c2)ccc1O [18F-FPCUR, ^18F-fluoropropylcurcumin]
binding in the cerebellum (CB) (β-amyloid plaques [4]; FIG. 7): little binding
binding in older transgenic mice (β-amyloid plaques [4]; older transgenic mice): Increased binding

displacement of 18F-FPCUR binding by competitor (β-amyloid plaques [4]; 10 μM competitor): displaced
Compound: COc1cc(/C=C/C(=O)CC(=O)/C=C/c2ccc(O)c(OC)c2)ccc1O [Curcumin]

Compound: CC(C=Cc1ccc(N(C)CCF)cc1)=C(C#N)C#N [FBM]
effect of competitor on binding of 18F-FDDNP in the hippocampus ([3]; FBM (1 mM), FIG. 3F): reduced

Compound: CC(=C(C#N)C#N)c1ccc2cc(N(C)CCF)ccc2c1 [FDDNP]
effect of competitor on selective binding of 18F-FBM to plaque regions ([3]; 1 μM FDDNP, FIG. 3E): significantly reduced
